In patent publication US9481734B2, “Immunoglobulin cleavage fragments and disease indicators and compositions for detecting and binding such” (Janssen Biotech, Inc., priority 2007, dated 2016):
No end group written: not given here. *: point of attachment. Biotin = O=C1N[C@H]2[C@H](CS[C@H]2CCCCC(=O)*)N1

Tests used:
[1] = system: Fab fragment of the 2095-2 antibody; conditions: Biacore, 25° C., 1:1 (Langmuir) model
Protocol: The specificity of binding was further examined using a Fab fragment of the 2095-2 antibody using a surface plasmon resonance platform (Biacore). Briefly, the Fab was immobilized to a CM5 sensor chip in a Biacore 2000 at three different surface densities (8500, 1650, and 350 RU) using standard NHS/EDC coupling. The running buffer contained 10 mM HEPES pH 7.4, 150 mM NaCl, and 0.01% Tween-20. Data were collected at 25° C.
Three N-terminally biotinylated peptides were tested for binding of to the immobilized Fab: WT, representing the expected sequence of a peptide fragment from a human IgG1 cleavage site after cleavage by the Streptococcus pyogenes IdeS protease; E233A, representing a variant of having a single alanine substitution at the amino acid residue four positions upstream of the C-terminus; and L234A, a variant having a single alanine substitution at the amino acid residue three positions upstream from the C-terminus. The peptides were modified by substituting serine for cysteine to make them compatible with the coupling chemistry and preserve the monomeric structure.
Peptides Wild type and E233A were tested in a 3-fold dilution series using 588 nM and 2.9 uM as the highest concentration, respectively. Peptide L234A was tested at 14.7 uM as the highest concentration in a 2-fold dilution series. Each peptide concentration series was tested in triplicate over the three different density Fab surfaces. The association and dissociation were monitored for 1 minute. Surfaces were regenerated with a 12 second injection of 1/500 dilution of phosphoric acid.

S. aureus (ATCC 29213) = assay: Wiffle ball (tissue cage) S. aureus infection model in rabbits; type: in vivo; conditions: day 2 after inoculation with 6.2 log 10 CFUs, immunized rabbits
Excerpt: In order to test the capacity of cleavage site specific antibodies to rescue cleaved IgGs in vivo, a model for bacterial infection employing a “tissue cage” (Fernandez J A, et. al. (1997) Antimicrob. Agents Chemother. 43(3):667-671) was adopted. In this system, a wiffle ball is surgically implanted subcutaneously in the dorsal cervical area. The model allows the infectious agents to be localized within an easily accessible fluid compartment, a tissue pouch, and has been used to assess the efficacy of antibiotics against bacteria.
In the final phase of the study, the immunized and non-immunized rabbits were inoculated with 6.2 log 10 colony forming units (CFUs) of S. aureus (ATCC 29213) directly into the wiffle-ball compartments.
The bacterial counts and test subject viability were monitored over the course of two weeks for bacterial counts and survival. The data shown in FIG. 13 indicate that during the first week of the study, the average bacterial counts for control animals were several logs higher than cleavage site specific vaccinated animals. For example, on day 2 the control had 7.2 log10 CFU/ml wiffle ball fluid while the immunized group had 5.2 log10 CFU/ml wiffle ball fluid.

human IgG1 = assay: Proteinase digestion of purified IgG1, Agilent biosizing; type: biochemical; conditions: for disappearance of intact IgG (160,000 Da): Mab1, 1% w/w enzyme, 37° C.
Chain of human IgG1 (P01857 99-224 limits assumed): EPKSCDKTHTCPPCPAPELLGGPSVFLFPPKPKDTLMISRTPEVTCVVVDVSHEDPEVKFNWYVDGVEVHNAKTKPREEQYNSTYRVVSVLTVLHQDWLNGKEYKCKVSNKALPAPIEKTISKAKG
Protocol: A purified monoclonal antibody comprising a human IgG heavy chain was contacted with the proteases described and sampling was conducted over various durations of contact. Fragmentation in the samples was evaluated using the Agilent microfluidics “lab-on-a-chip” technology for in vitro biosizing (Goetz H et al. Biochemical and Biophysical Methods 60; 281-293, 2004).
Proteinase digestions of purified IgGs were carried out at pH 7.5 in phosphate-buffered saline (PBS) or, for the metalloproteinases, in Tris-buffered saline buffer at 37° C. Calcium chloride was included in the metalloproteinase reactions at 1 mM for MMP-12 and 10 mM for MMP-3; otherwise no additives were used. Antibody concentrations were typically 1 or 2 mg/mL and reactions were initiated by addition of enzyme to a 1% (w/w) ratio to IgG. Aliquots (10-20 μL) were removed at indicated times and the reactions were stopped either by adjustment to 20 mM EDTA (metalloproteinase incubations) or to 1 mM iodoacetamide (cysteine proteinases) or by rapid freezing.
The major proteolytic cleavage positions in the IgG1 hinge were identified for enzyme-generated fragments by N-terminal sequencing of the purified Fc fragment (MMP-3 and MMP-12) and/or high resolution mass spectrometric analyses of the purified Fab (neutrophil elastase, plasmin) and F(ab′)2 (cathepsin G, glutamyl endopeptidase and IdeS) fragments. Fragmentation was evaluated using the Agilent microfluidics “lab-on-a-chip” technology.

[2] = system: platelet surface IIb/III3 receptors; assay: Platelet aggregation assay; type: cell-based; conditions: 5 μM adenosine diphosphate (ADP), compared with intact c7E3 IgG
Protocol: c7E3 inhibits platelet aggregation by binding to platelet surface IIb/III3 receptors—thereby blocking the ability of fibrinogen to bind to the receptors on activated platelets and to clump them together. The respective inhibitory profiles of intact and single-cleaved c7E3 IgG were tested in a platelet aggregation assay. Platelet aggregation is measured as an increase of light transmission through a platelet suspension after activation with a physiological agonist. The inhibition is compared to control aggregation to 5 μM adenosine diphosphate (ADP). The percent inhibition was calculated as: control aggregation−test aggregation×100%, divided by control aggregation.

platelets [3] = assay: Restoration of function study in dogs, platelet counts; type: in vivo; conditions: c7E3 variants 0.05 mg/kg, mAb 2095-2 0.5 mg/kg after 10 min delay, groups of 3 animals
Protocol: To be consistent with the prior experiments, the variants of c7E3 were all administered at the 0.05 mg/kg dose. The unique aspect of the experiment (groups 6 and 7) involves the infusion of the first targeting mAb followed by the cleavage site specific mAb after a 10 minute delay. The cleavage site specific IdeS cleavage site mAb, 2095-2, was administered at 0.5 mg/kg; 10-fold higher than the dose used for all of the c7E3 variants. The higher dose was chosen in order to maximize the complexation of cleavage site specific mAb with platelet-bound c7E3 variants. All mAbs were delivered by slow infusion over a 20 minute period. Platelet counts were monitored over a 96-hour period. The platelet counts were normalized to the pre-dose count within each animal for clarity of presentation and to minimize the normal variability in numerical platelet counts in these small 3-animal groups.

platelets [4] = assay: Platelet counts in dogs, intact versus single-cleaved c7E3 IgG; type: in vivo; conditions: 0.05 mg/kg
Protocol: c7E3 IgG and c7E3 IgG single-cleaved by IdeS protease were also compared in vivo. Three groups of 5 animals received either saline control, intact c7E3 IgG (0.05 mg/kg) or c7E3 single-cleaved IgG (0.05 mg/kg). Platelet counts were monitored at baseline and at 2, 24, 48, 72 and 96 hours post-administration. Limiting the study to 5 days minimized the likelihood of anti-c7E3 immune responses that might confound the interpretation of the results. The results are presented in FIG. 3 as the mean platelet count±SD for each animal group at each time point. The extent of the error bars connotes the normal variability of platelet counts in different animals (for example, the predose counts for the 5 animals in the single-cleaved IgG treatment group were 175,000, 355,000, 305,000, 276,000 and 334,000 per μL, respectively).

platelets [5] = assay: Test infusions of c7E3 IgG in dogs, platelet depletion; type: in vivo; conditions: 0.05 mg/kg dose, calculated
Excerpt: First, the c7E3 antibody antigen binding and platelet depletion parameters were established in dogs.

Biotin-TSPPSPAPALLG [E233A]
ka(M-1s-1) × 10^−5 [1]: 7.29 ± 0.03 M-1s-1 × 10^−5
kd [1]: 0.1070 ± 0.04 s⁻¹

Biotin-TSPPSPAPEALG [L234A]
ka(M-1s-1) × 10^−5 [1]: 1.24 ± 0.01 M-1s-1 × 10^−5
kd [1]: 1.03 ± 0.01 s⁻¹

Biotin-TSPPSPAPELLG [Wt]
ka(M-1s-1) × 10^−5 [1]: 5.22 ± 0.04 M-1s-1 × 10^−5
kd [1]: 0.00443 ± 0.02 s⁻¹

C-T-S-P-P-S-P-S-P-A-P-E (CTSPPSPSPAPE; also: conjugated to KLH) [GluV8-cleavage site peptide analogue]
bacterial count (S. aureus (ATCC 29213)): 5.2 log10 CFU/ml wiffle ball fluid

Glutamyl endopeptidase I (Glu V8 protease): Staph. aureus serine endopeptidase
disappearance of intact IgG (160,000 Da) (human IgG1): several hours

Stromelysin (MMP-3): human metalloendopeptidase
disappearance of intact IgG (160,000 Da) (human IgG1): several hours

Tryptase: human serine endopeptidase
Major Product (human IgG1; human IgG1, None denotes no detectable cleavage in 24 hours): None

c7E3 sc IgG: c7E3 IgG single-cleaved by IdeS protease
binding/inhibition of platelet aggregation after single lower hinge cleavage [2]: no loss of binding/inhibition
effect on platelet numbers (platelets [3]): without effect on platelet numbers

B1: c7E3 IgG: anti-platelet integrin (αIIbβIIIa) murine-human IgG1 chimeric antibody (antibody, chains of the INN, looked up, V domains shown)
VH: EVQLQQSGTVLARPGASVKMSCEASGYTFTNYWMHWVKQRPGQGLEWIGAIYPGNSDTSYIQKFKGKAKLTAVTSTTSVYMELSSLTNEDSAVYYCTLYDGYYVFAYWGQGTLVTVSA
VL: EIVLTQSPVTLSVTPGDSVSLSCRASRDISNNLHWFQQTSHESPRLLIKYASQSMSGIPSRFSGSGSGTDFTLSINSVETEDFGMYFCQQTNSWPYTFGGGTKLEIK
modifications: IgG1
notes: anti-platelet integrin (αIIbβIIIa) murine-human IgG1 chimeric antibody
nadir of platelet numbers (platelets [4]): 24 h
recovery of platelet counts (platelets [4]; by 96 hours): approximately 50 % of the pre-dose level
effect on platelet numbers (platelets [4]; groups of 5 animals, 96-hour monitoring): substantial decrease of platelet numbers
αIIbβ3 receptor blockade (platelets [5]): about 5%

B2: c7E3 F(ab′)2: F(ab′)2 of c7E3 prepared using the bacterial enzyme IdeS (antibody, chains of the INN, looked up, V domains shown)
VH: EVQLQQSGTVLARPGASVKMSCEASGYTFTNYWMHWVKQRPGQGLEWIGAIYPGNSDTSYIQKFKGKAKLTAVTSTTSVYMELSSLTNEDSAVYYCTLYDGYYVFAYWGQGTLVTVSA
VL: EIVLTQSPVTLSVTPGDSVSLSCRASRDISNNLHWFQQTSHESPRLLIKYASQSMSGIPSRFSGSGSGTDFTLSINSVETEDFGMYFCQQTNSWPYTFGGGTKLEIK
modifications: F(ab')2 IdeS-generated
notes: F(ab′)2 of c7E3 prepared using the bacterial enzyme IdeS
effect on platelet numbers (platelets [3]): without effect on platelet numbers
